{"source": "patent US11029303B2", "about": "“PAH antibodies and uses thereof” (The Administrators of the Tulane Educational Fund, priority 2015, dated 2021)", "key": {"[1]": {"molecular_target": "T1, human aryl hydrocarbon receptor (AhR) (Homo sapiens, UniProt P35869)", "T1 construct": "host or cells: Saccharomyces cerevisiae strain YCM3 (derived from W303a), AhR and ARNT integrated on chromosome III under a galactose promoter", "T1 sequence (P35869 11-848)": "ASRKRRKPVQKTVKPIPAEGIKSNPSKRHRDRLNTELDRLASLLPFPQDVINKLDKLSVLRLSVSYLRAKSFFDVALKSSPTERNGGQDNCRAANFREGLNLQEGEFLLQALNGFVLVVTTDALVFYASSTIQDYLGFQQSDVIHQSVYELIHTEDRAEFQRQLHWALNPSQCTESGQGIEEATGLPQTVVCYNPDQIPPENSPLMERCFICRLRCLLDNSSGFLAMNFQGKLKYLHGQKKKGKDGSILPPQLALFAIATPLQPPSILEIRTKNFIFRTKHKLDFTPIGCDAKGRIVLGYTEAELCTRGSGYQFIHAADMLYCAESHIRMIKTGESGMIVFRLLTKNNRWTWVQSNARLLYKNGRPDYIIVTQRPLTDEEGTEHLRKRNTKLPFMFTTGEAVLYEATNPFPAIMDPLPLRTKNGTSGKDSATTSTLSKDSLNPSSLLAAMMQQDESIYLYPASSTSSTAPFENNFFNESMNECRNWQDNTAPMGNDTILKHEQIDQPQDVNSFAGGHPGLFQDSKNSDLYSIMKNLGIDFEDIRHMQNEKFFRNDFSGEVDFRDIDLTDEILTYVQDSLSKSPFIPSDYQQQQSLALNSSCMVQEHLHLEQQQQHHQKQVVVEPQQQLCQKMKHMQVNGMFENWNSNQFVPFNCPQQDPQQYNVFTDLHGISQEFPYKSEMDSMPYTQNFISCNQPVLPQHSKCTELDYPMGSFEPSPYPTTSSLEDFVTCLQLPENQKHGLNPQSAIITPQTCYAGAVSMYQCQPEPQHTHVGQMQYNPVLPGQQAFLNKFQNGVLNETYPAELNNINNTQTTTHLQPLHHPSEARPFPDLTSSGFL", "T1 sequence (P27540 whole entry partner)": "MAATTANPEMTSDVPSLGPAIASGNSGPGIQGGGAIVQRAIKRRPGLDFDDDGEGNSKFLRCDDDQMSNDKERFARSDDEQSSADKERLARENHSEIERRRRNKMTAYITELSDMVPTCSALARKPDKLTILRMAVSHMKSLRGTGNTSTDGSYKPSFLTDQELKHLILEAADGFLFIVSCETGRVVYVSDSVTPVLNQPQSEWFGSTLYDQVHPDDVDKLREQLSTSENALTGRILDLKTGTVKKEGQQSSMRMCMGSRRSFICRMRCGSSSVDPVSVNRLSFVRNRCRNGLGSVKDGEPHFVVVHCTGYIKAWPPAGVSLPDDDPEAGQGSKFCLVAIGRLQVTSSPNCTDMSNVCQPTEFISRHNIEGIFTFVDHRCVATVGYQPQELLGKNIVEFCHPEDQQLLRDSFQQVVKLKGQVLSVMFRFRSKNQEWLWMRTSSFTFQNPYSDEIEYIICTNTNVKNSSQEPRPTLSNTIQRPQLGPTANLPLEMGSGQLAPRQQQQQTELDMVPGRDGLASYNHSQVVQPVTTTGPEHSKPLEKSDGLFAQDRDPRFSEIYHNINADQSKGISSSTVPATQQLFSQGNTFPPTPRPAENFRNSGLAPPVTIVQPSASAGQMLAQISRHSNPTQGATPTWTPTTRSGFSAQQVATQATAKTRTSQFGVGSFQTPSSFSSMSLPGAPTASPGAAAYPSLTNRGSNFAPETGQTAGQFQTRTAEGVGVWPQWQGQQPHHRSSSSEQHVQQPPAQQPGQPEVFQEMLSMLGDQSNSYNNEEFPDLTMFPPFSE", "assay": "Yeast bioassay of human AhR activation (YCM3 yeast, LacZ reporter)", "type": "cell-based", "conditions": "for pEC50: concentration inducing 50% of the activity of 100 μM phenanthrene, 18 hr, read-out: rEC50", "text": "Cell culture. An engineered Saccharomyces cerevisiae yeast strain, YCM3, was used for the present study. YCM3 was derived from the W303a yeast strain and is made available to investigators through the American Type Culture Collection (ATCC, strain MYA-3637). Human Ah receptor and ARNT genes were inserted onto chromosome III under the control of galactose promoter. YCM3 was transformed with a LacZ reporter plasmid that is expressed upon interaction with ligand activated AHRC (FIG. 24). This modification process was described in a previous study (Fox et al., 2008). The yeast cells were maintained in a glucose-containing medium (0.67% yeast nitrogen base without amino acids, 2% glucose, supplemented with 0.01% uracil, adenine, leucine, and histidine), and the bioassay was performed in a galactose-containing medium (2% galactose substituted for glucose in the medium described herein). Medium components were purchased from Sigma Aldrich Chemical Company.\n(§1) Yeast bioassay. The YCM3 yeast cells were diluted into the galactose medium to a final A600 nm of 0.04, plated into 96-well plates at 200 μl/well, and treated with various concentrations of PAHs for 18 hr at 30° C. During this time, the human AhR and aryl hydrocarbon receptor nuclear translocator (ARNT) were expressed in the presence of galactose and activated by PAH ligands in the cell to form the aryl hydrocarbon receptor complex (AHRC). After 18 hrs of incubation, yeast cells were suspended by pipetting, a 25 μl aliquot from each well was transferred into another 96-well assay plate and mixed with 225 μl substrate solution (60 mM Na2HPO4, 40 mM NaH2PO4, 1 mM MgCl2, 10 mM KCl, 0.2% sarkosyl, 1 mM dithiothreitol, and 0.4 mg/ml ortho-nitrophenyl-β-galactoside; pH, 7.0). The assay plate was incubated for ˜5 min at 37° C. and then 100 μl of a 1M Na2CO3 solution was added to stop the reaction and enhance the yellow color. Cell densities were determined from the first 96-well plate by measuring A600 nm and the color intensities of LacZ reactions determined by A405 nm from the corresponding wells of the second plate.\nA450 sample is the measurement of a ligand-treated well at 405 nm absorbance and A450 empty is the measurement of a well that contains only medium and no cells. A600 sample is the measurement of yeast cell density of a ligand-treated well at 600 nm absorbance and A600 empty is the measurement of a well that contains only medium and no cells. Cell volume is the amount of cell suspension added per well in ml (for example 0.025 ml) and reaction time is the time period of the colorimetric reaction (for example 5 min). The lacZ units were calculated as a percentage relative to the positive control (β-naphthaflavone signal set as 100%), and the dose response curves were fitted using SlideWrite program (version 7.01, Advanced Graphics Software, Inc.) using the 2 parameter curve: y=m+a0*x/(a1+x) (2) where m=LacZDMSO value from the assay plate, a0=maximum effect and a1=half maximum effective concentrations (EC50).\nRelative EC50 and EC25 (rEC50 and rEC25) values were further introduced to compare potencies of various methylated phenanthrenes. rEC50 and rEC25 were defined as the concentrations of the total PAH at which the AhR was activated to 50% or 25% of the activation observed in the 100 μM phenanthrene control, respectively. The 100 μM concentration was chosen because it was the maximum that can be achieved in the assay. The rEC50 and rEC25 and the errors associated with these values were calculated from the fitted curves. Specifically, the LacZ value corresponding to 50% or 25% of this value was calculated according to the following equations: y(EC50)=[lacZ(100 uM Phen)+LacZ(1% DMSO)]/2 (3) y(EC25)=[lacZ(100 uM Phen)+3*LacZ(1% DMSO)]/4 (4)\nThese calculated y values and the a0 and a1 values from the curve fits were then used to solve for x in equation (2) above. These x values represent the mean of rEC50 or rEC25 from the fitted curve. […]"}, "YCM3 yeast cells": {"system": "YCM3 yeast cells", "assay": "Toxicity to yeast cells in the yeast bioassay (inhibition of cell accumulation)", "type": "cell-based, Saccharomyces cerevisiae", "conditions": "up to 100 μM", "experimental": "as §1, with “The assay plate was incubated for ˜5 min at 37° C. and then 100 μl of a 1M Na2CO3 solution was added to stop the reaction and enhance the yellow color.” left out\nDuring the induction process, YCM3 yeast cells were incubated with varying concentrations of phenanthrene and its methylated derivatives and their signaling activities were measured via a colorimetric substrate. […] Differences in cell growth at the end of the 18 hr incubation period were normalized by measuring each culture's absorbance at 600 nm."}, "[2]": {"conditions": "crystal; cited from earlier work"}, "marine fish": {"system": "marine fish", "conditions": "larvae of marine fish; cited from earlier work"}}, "note": "pEC50: −log10 of the molar value.", "data": [{"smiles": "Cc1ccc2ccc3ccc(C)cc3c2c1", "note": "[3,6-DMP, 3,6-dimethylphenanthrene]", "values": [{"measurement": "rEC50 comparison (ANOVA post-test)", "setting": "[1]", "value": "significantly more potent that 4-MP"}, {"measurement": "rEC25 comparison (ANOVA post-test)", "setting": "[1]; 25% of the activity of 100 μM phenanthrene", "value": "significantly more potent than the 3-, 4- and 9-MPs"}, {"measurement": "response achieved in the assay", "setting": "[1]; dose-response curve up to 100 μM", "value": "up to 50%"}]}, {"smiles": "Cc1cccc2c1ccc1ccccc12", "note": "[Clone 1-MP, 1-methylphenanthrene]", "values": [{"measurement": "concentration at which maximal response was reached", "setting": "[1]", "value": "~40", "unit": "µM"}, {"measurement": "pEC50", "setting": "[1]", "value": 5.40}, {"measurement": "Emax at 18 h", "setting": "[1]; human, 1 μM BNF set as 100%, read-out: maximal response", "value": 109, "unit": "%"}]}, {"smiles": "Cc1ccc2c(ccc3ccccc32)c1", "note": "[Clone 2-MP, 2-methylphenanthrene]", "values": [{"measurement": "pEC50", "setting": "[1]", "value": 5.34}]}, {"smiles": "Cc1ccc2ccc3ccccc3c2c1", "note": "[Clone 3-MP, 3-methylphenanthrene]", "values": [{"measurement": "pEC50", "setting": "[1]", "value": 5.24}]}, {"smiles": "Cc1cc2ccccc2c2ccccc12", "note": "[Clone 9-MP, 9-methylphenanthrene]", "values": [{"measurement": "toxicity to the yeast cells", "setting": "YCM3 yeast cells", "value": "less toxic to the yeast cells"}]}, {"smiles": "c1ccc2c(c1)ccc1ccccc12", "note": "[phenanthrene]", "values": [{"measurement": "solubility lower than biphenyl", "setting": "[2]", "value": 1000, "unit": "fold"}, {"measurement": "toxicity to the yeast cells", "setting": "YCM3 yeast cells", "value": "less toxic to the yeast cells"}]}, {"smiles": "Cc1cccc2c1ccc1cc(C(C)C)ccc12", "note": "[retene, 7-isopropyl-1-methylphenanthrene]", "values": [{"measurement": "toxicity in vivo", "setting": "marine fish", "value": "greater toxicity than unsubstituted phenanthrene"}]}]}
